Reference: US20250324977A1, “ENGINEERED BACTERIA FOR ENHANCED CROP PRODUCTION” (The Regents of the University of California, priority 2022, published 2025)

What was measured:
Arabidopsis roots = conditions: in vivo; cited from earlier work
Arabidopsis = experiment: Combinatorial root growth assay with plant growth media supplied with Trp; format: in vivo
Description: To further test this hypothesis, we supplied plant growth media with Trp (FIG. 4, FIGS. 13 and 14) and repeated the combinatorial assay. […] In contrast, root growth might improve if the WCS417 strain are metabolically active only around the root tips. […] However, at 10 μM, Trp inhibited the root growth of plants colonized with the wild-type WCS417 strain. […] Additionally, we inoculated the engineered strains to the Trp-overproducing Arabidopsis mutant line. Root growth and development of this Arabidopsis mutant line are not also impaired (FIG. 4).
First, Arabidopsis seeds are sterilized with 70% ethanol for 2 min and 10% bleach for 5 min. These seeds are rinsed five times with sterile water. Sterilized seeds are kept in a 4° C. fridge for 3 days and then are horizontally individually dispensed on the surface of 1/2 MS agar plates. The plates are vertically incubated in a plant growth chamber under a light cycle of 8 h dark and 16 h light for 6 days. […] On the following day, cultures are washed three times with sterile 10 mM MgCl2 solution and measured for values at OD600nm using an Eppendorf Spectro reader. Uniformly germinated 6-day-old seedlings are inoculated with 1 μL of OD600nm=0.2 culture of engineered WCS417 strains. […] Collected photos are analyzed using EZ-Root-VIS software (Shahzad et al., 2018) for primary root length, lateral root number, and total length.

| Structure (SMILES) | level of externally added IAA that significantly changes root phenotypes (Arabidopsis roots) [µM] | root growth (Arabidopsis; 0.1 μM of Trp in plant growth media) | root growth of plants colonized with the wild-type WCS417 strain (Arabidopsis; 10 μM Trp in plant growth media) |
| --- | --- | --- | --- |
| O=C(O)Cc1c[nH]c2ccccc12 [IAA, Indole-3-acetic acid] | 0.01 to 0.1 | – | – |
| N[C@@H](Cc1c[nH]c2ccccc12)C(=O)O [Trp, tryptophan] | – | did not see much impact | inhibited |
